Source: ChEMBL document CHEMBL4507270 (2021)

Columns and labels:
[1] = biological target: Insulin-like growth factor 1 receptor (Homo sapiens) (UniProt P08069)
[2] = biological target: STE20-like serine/threonine-protein kinase (Homo sapiens) (UniProt Q9H2G2)
[3] = biological target: Calcium/calmodulin-dependent protein kinase type II subunit delta (Homo sapiens) (UniProt Q13557)
[4] = biological target: Mitogen-activated protein kinase 1 (Homo sapiens) (UniProt P28482)
[5] = biological target: Fibroblast growth factor receptor 1 (Homo sapiens, UniProt P11362)
[6] = biological target: Protein kinase C epsilon type (Homo sapiens) (UniProt Q02156)
[7] = biological target: Bone morphogenetic protein receptor type-1B (Homo sapiens) (UniProt O00238)
[8] = biological target: Serine/threonine-protein kinase pim-3 (Homo sapiens) (UniProt Q86V86)
[9] = biological target: Rhodopsin kinase GRK1 (Homo sapiens) (UniProt Q15835)
[10] = biological target: Mitogen-activated protein kinase 10 (Homo sapiens) (UniProt P53779)
[11] = system: Receptor-type tyrosine-protein kinase FLT3 (Homo sapiens), P36888 [R834Q]
[12] = biological target: Cyclin-dependent kinase 11A (Homo sapiens) (UniProt Q9UQ88)
[13] = biological target: Cyclin-dependent kinase 4 (Homo sapiens) (UniProt P11802)
[14] = biological target: Dual specificity mitogen-activated protein kinase kinase 4 (Homo sapiens) (UniProt P45985)
[15] = biological target: Phosphatidylinositol 4-phosphate 5-kinase type-1 gamma (Homo sapiens) (UniProt O60331)
[16] = biological target: Serine/threonine-protein kinase N2 (Homo sapiens) (UniProt Q16513)
[17] = biological target: Serine/threonine-protein kinase 3 (Homo sapiens) (UniProt Q13188)
[18] = biological target: Mitogen-activated protein kinase kinase kinase 6 (Homo sapiens) (UniProt O95382)
[19] = biological target: Tyrosine-protein kinase ZAP-70 (Homo sapiens) (UniProt P43403)
[20] = biological target: Serine/threonine-protein kinase PLK3 (Homo sapiens) (UniProt Q9H4B4)
[21] = biological target: Protein kinase C eta type (Homo sapiens) (UniProt P24723)
Rattus norvegicus = organism: Rattus norvegicus; settings: Compound concentration 10.0 uM
[22] = biological target: Serine/threonine-protein kinase 16 (Homo sapiens) (UniProt O75716)
[23] = biological target: Serine/threonine-protein kinase TNNI3K (Homo sapiens) (UniProt Q59H18)
[24] = biological target: Glycogen synthase kinase-3 beta (Homo sapiens) (UniProt P49841)
[25] = system: Tyrosine-protein kinase ABL1 (Homo sapiens), P00519 [F317I]
[26] = system: Tyrosine-protein kinase ABL1 (Homo sapiens), P00519 [Y253F]
[27] = biological target: Serine/threonine-protein kinase MRCK alpha (Homo sapiens) (UniProt Q5VT25)
[28] = biological target: Serine/threonine-protein kinase OSR1 (Homo sapiens) (UniProt O95747)
[29] = biological target: Receptor-interacting serine/threonine-protein kinase 4 (Homo sapiens) (UniProt P57078)
[30] = biological target: Mitogen-activated protein kinase 8 (Homo sapiens) (UniProt P45983)
[31] = biological target: Cyclin-dependent kinase 19 (Homo sapiens) (UniProt Q9BWU1)
[32] = biological target: Wee1-like protein kinase 2 (Homo sapiens) (UniProt P0C1S8)
[33] = NanoBRET assay (SGC Frankfurt) with LYN; settings: Homo sapiens
[34] = biological target: LIM domain kinase 2 (Homo sapiens) (UniProt P53671)
[35] = biological target: Homeodomain-interacting protein kinase 1 (Homo sapiens) (UniProt Q86Z02)
[36] = biological target: Mitogen-activated protein kinase kinase kinase 20 (Homo sapiens) (UniProt Q9NYL2)
[37] = biological target: Serine/threonine-protein kinase LATS1 (Homo sapiens) (UniProt O95835)
[38] = biological target: Beta-1 adrenergic receptor (Homo sapiens) (UniProt P08588); settings: Compound concentration 10.0 uM
[39] = biological target: Mitogen-activated protein kinase kinase kinase 13 (Homo sapiens) (UniProt O43283)
[40] = biological target: Rho-associated protein kinase 2 (Homo sapiens) (UniProt O75116)
[41] = biological target: Homeodomain-interacting protein kinase 3 (Homo sapiens) (UniProt Q9H422)
[42] = biological target: Serine/threonine-protein kinase/endoribonuclease IRE1 (Homo sapiens) (UniProt O75460)
[43] = biological target: Phosphatidylinositol 5-phosphate 4-kinase type-2 gamma (Homo sapiens) (UniProt Q8TBX8)
[44] = biological target: Alpha-1D adrenergic receptor (Homo sapiens) (UniProt P25100); settings: Compound concentration 10.0 uM
[45] = biological target: Activin receptor type-1B (Homo sapiens) (UniProt P36896)
[46] = Compound concentration 100.0 nM
[47] = Compound concentration 1000.0 nM

Serine/threonine-protein kinase/endoribonuclease IRE1 (Homo sapiens), sequence (O75460 19-977 limits assumed): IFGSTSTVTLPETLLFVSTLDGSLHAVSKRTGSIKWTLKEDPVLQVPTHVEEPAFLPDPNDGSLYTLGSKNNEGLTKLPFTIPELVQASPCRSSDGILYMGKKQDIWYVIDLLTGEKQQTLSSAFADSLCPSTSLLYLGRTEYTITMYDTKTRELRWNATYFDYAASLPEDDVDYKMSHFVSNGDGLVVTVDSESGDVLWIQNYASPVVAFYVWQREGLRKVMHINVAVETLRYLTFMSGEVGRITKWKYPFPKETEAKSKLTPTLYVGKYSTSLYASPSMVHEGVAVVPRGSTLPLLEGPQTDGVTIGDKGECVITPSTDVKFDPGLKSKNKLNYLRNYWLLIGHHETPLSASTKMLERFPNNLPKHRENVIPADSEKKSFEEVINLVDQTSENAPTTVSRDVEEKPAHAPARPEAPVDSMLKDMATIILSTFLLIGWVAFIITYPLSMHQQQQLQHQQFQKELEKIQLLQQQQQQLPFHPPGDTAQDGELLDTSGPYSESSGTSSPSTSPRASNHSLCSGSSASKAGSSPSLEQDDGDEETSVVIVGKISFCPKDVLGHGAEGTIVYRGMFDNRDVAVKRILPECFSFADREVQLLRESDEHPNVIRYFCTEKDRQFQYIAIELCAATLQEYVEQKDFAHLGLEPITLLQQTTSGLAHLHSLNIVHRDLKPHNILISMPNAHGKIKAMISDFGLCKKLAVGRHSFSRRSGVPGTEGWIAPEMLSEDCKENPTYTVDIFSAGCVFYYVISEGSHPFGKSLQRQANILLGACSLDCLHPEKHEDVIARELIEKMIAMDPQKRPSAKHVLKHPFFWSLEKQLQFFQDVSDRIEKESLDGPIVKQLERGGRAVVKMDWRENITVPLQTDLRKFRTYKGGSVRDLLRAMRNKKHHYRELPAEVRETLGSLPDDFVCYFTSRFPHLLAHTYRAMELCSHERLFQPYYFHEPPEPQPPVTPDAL
Cyclin-dependent kinase 4 (Homo sapiens), sequence (P11802 whole entry): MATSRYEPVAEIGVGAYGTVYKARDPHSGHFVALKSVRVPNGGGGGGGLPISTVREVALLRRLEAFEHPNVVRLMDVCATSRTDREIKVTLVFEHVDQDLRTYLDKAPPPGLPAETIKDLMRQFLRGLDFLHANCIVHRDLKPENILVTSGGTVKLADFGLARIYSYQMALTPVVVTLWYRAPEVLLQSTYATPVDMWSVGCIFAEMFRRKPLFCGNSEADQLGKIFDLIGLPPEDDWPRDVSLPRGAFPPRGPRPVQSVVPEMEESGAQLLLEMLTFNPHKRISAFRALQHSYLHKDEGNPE
Protein kinase C eta type (Homo sapiens), sequence (P24723 whole entry): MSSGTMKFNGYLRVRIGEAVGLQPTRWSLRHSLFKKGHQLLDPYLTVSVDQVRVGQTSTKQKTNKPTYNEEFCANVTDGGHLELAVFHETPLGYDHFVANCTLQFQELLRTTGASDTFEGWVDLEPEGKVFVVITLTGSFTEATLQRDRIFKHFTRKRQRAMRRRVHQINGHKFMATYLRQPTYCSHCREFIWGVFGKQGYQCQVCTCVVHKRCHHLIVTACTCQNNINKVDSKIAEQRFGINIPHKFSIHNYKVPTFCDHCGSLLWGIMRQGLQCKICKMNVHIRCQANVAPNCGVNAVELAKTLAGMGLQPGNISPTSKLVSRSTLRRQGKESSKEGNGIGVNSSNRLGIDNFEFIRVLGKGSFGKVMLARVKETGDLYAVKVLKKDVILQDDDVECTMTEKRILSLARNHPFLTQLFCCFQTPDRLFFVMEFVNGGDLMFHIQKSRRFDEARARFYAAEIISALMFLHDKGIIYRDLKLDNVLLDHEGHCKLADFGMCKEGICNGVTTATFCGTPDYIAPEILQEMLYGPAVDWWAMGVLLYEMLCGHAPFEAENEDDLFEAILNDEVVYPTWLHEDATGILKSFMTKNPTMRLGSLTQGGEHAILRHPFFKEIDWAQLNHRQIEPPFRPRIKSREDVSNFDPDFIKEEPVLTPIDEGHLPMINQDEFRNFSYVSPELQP
Insulin-like growth factor 1 receptor (Homo sapiens), sequence (P08069 31-736 limits assumed): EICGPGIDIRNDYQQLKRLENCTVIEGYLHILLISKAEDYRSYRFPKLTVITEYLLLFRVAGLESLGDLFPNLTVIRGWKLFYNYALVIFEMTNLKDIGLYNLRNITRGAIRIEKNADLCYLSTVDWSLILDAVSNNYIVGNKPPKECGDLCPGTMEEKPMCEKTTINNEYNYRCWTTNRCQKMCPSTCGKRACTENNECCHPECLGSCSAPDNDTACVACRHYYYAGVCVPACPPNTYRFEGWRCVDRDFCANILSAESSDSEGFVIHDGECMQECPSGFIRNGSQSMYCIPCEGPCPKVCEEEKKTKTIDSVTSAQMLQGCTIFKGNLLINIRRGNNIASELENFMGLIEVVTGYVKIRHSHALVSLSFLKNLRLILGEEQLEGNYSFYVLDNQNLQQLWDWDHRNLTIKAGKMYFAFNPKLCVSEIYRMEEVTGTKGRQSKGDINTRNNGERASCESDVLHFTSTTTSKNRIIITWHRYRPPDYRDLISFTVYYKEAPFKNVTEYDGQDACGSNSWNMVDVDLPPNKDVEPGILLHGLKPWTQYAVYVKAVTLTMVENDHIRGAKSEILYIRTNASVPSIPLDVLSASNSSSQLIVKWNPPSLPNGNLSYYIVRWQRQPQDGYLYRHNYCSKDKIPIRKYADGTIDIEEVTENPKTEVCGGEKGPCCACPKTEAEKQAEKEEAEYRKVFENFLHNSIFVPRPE
Insulin-like growth factor 1 receptor (Homo sapiens), sequence (P08069 741-1367 limits assumed): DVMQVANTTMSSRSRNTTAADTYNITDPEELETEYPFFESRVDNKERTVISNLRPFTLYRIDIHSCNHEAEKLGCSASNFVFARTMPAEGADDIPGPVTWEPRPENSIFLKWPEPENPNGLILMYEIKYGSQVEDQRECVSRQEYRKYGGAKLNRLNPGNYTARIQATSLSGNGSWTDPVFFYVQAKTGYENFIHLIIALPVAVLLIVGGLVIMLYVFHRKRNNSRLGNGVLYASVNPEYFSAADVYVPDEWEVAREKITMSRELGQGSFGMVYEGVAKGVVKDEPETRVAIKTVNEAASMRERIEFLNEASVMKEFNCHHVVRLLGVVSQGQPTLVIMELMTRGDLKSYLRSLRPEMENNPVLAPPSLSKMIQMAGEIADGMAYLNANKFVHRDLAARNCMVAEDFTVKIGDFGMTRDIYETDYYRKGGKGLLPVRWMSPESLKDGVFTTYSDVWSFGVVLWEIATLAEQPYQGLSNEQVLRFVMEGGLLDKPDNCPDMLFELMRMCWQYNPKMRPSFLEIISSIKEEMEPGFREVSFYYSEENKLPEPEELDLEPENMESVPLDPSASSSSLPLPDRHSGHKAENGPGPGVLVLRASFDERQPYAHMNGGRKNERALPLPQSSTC
STE20-like serine/threonine-protein kinase (Homo sapiens), sequence (Q9H2G2 whole entry, looked up): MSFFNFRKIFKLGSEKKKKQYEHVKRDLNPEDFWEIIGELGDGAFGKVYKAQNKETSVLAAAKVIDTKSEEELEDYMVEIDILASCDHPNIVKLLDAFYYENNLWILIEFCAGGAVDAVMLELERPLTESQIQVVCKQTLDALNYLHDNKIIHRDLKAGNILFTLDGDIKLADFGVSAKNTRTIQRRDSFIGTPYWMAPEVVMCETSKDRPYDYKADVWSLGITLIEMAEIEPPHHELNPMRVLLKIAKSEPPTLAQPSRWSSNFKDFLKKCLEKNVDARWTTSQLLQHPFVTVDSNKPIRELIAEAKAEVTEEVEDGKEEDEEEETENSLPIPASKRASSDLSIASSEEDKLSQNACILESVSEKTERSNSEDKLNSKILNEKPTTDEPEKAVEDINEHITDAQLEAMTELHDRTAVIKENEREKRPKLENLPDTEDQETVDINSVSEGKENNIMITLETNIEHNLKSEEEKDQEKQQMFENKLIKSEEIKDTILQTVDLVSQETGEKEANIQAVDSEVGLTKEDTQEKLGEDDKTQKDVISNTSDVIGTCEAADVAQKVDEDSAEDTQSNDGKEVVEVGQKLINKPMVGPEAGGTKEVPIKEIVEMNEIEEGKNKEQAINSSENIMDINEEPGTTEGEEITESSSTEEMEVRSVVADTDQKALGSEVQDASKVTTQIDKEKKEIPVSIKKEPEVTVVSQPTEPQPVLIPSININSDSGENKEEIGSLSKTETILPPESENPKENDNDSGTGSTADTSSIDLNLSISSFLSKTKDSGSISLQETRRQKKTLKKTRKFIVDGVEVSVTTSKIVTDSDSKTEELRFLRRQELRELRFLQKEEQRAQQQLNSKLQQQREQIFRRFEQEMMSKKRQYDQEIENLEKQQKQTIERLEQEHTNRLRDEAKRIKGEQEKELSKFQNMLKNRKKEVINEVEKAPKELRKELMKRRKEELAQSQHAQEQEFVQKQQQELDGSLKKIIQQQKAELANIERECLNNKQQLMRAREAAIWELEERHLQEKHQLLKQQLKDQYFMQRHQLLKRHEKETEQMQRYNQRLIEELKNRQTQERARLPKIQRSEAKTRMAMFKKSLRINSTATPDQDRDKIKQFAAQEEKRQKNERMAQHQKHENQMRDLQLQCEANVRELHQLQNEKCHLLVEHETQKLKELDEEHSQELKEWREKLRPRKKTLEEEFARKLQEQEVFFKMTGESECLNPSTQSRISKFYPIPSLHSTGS

Compound `Cc1cc(C)c(-n2ccn3nc(-c4cccnc4)cc23)cc1NC(=O)c1cc(C#N)cc(S(F)(F)(F)(F)F)c1` [BAY-826] has a residual activity [1, 46] of 84.7%, a residual activity [2, 46] of 48.5% and a residual activity [3, 46] of 89.1%. It also gave a residual activity [4, 46] of 88.1%, a residual activity [5, 46] of 85.5% and a residual activity [6, 46] of 100%. The residual activity [7, 46] was 72.3%, the residual activity [8, 46] was 83.1% and the residual activity [9, 46] was 71.2%. It also gave a residual activity [10, 46] of 100%, a residual activity [11, 46] of 62.3% and a residual activity [12, 46] of 89.9%. For the same compound, the residual activity [13, 46] was 82.4%, the residual activity [14, 46] was 74.7% and the residual activity [15, 46] was 70.2%. For the same compound, the residual activity [16, 46] was 100%, the residual activity [17, 46] was 85.4% and the residual activity [18, 46] was 100%. The residual activity [19, 46] was 79.9%, the residual activity [20, 46] was 81.8% and the residual activity [21, 46] was 99.5%. For the same compound, the inhibition (Rattus norvegicus) was 59.1%, the residual activity [22, 46] was 64.3% and the residual activity [23, 46] was 85.8%. For the same compound, the residual activity [24, 46] was 85.9%, the residual activity [25, 46] was 65.8% and the residual activity [26, 46] was 68.6%. It also gave a residual activity [27, 46] of 100%, a residual activity [28, 46] of 87% and a residual activity [29, 46] of 62.9%. It also gave a residual activity [30, 46] of 76.8%, a residual activity [31, 46] of 90.7% and a residual activity [32, 46] of 77.4%. The EC50 [33] was 7.4 µM (not active), the IC50 [33] was 8.2 µM (not active) and the residual activity [34, 46] was 89%. For the same compound, the residual activity [35, 46] was 61.6%, the residual activity [36, 46] was 97.5% and the residual activity [37, 46] was 83.9%. For the same compound, the inhibition [38] was 9.41%, the residual activity [39, 46] was 97.9% and the residual activity [40, 46] was 66.2%. For the same compound, the residual activity [41, 46] was 80.7%, the residual activity [42, 46] was 68.3% and the residual activity [43, 46] was 89.9%. It also gave an inhibition [44] of -2.46% and a residual activity [45, 46] of 100%.
In the case of `Cc1cc(NC(=O)c2cccc(S(F)(F)(F)(F)F)c2)cc(-n2ccn3nc(-c4cccnc4)cc23)c1` [BAY-309], the residual activity [1, 47] is reported as 100%, the residual activity [2, 47] is reported as 95.2% and the residual activity [3, 47] is reported as 80%. For the same compound, the residual activity [4, 47] was 61.7%, the residual activity [5, 47] was 100% and the residual activity [6, 47] was 91.2%. For the same compound, the residual activity [7, 47] was 100%, the residual activity [8, 47] was 100% and the residual activity [9, 47] was 50.4%. For the same compound, the residual activity [10, 47] was 64.9%, the residual activity [11, 47] was 100% and the residual activity [12, 47] was 95.4%. It also gave a residual activity [13, 47] of 79.3%, a residual activity [14, 47] of 76% and a residual activity [15, 47] of 100%. It also gave a residual activity [16, 47] of 100%, a residual activity [17, 47] of 100% and a residual activity [18, 47] of 62.7%. The residual activity [19, 47] was 100%, the residual activity [20, 47] was 69.4% and the residual activity [21, 47] was 100%. It also gave an inhibition (Rattus norvegicus) of 67.8%, a residual activity [22, 47] of 53.9% and a residual activity [23, 47] of 100%. It also gave a residual activity [24, 47] of 85.4%, a residual activity [25, 47] of 100% and a residual activity [26, 47] of 100%. It also gave a residual activity [27, 47] of 88.5%, a residual activity [28, 47] of 100% and a residual activity [29, 47] of 34.1%. It also gave a residual activity [30, 47] of 55.9%, a residual activity [31, 47] of 84.1% and a residual activity [32, 47] of 100%. The EC50 [33] was > 50 µM (not active), the IC50 [33] was 7 µM (not active) and the residual activity [34, 47] was 95.3%. It also gave a residual activity [35, 47] of 49.1%, a residual activity [36, 47] of 84.4% and a residual activity [37, 47] of 100%. For the same compound, the inhibition [38] was -7.94%, the residual activity [39, 47] was 100% and the residual activity [40, 47] was 87.6%. For the same compound, the residual activity [41, 47] was 88.8%, the residual activity [42, 47] was 99.2% and the residual activity [43, 47] was 99.1%. It also gave an inhibition [44] of 27.7% and a residual activity [45, 47] of 100%.
